Source: ChEMBL document CHEMBL4765365, “Design, synthesis and antitumour evaluation of pyrrolo[1,2-f]-phenanthridine and dibenzo[f,h]pyrrolo[1,2-b]isoquinoline derivatives” (Eur J Med Chem, 2020)

Legend:
[1] = tested on: NCI-H460; assay: Induction of cell cycle arrest in human NCI-H460 cells assessed as G0 phase at 3 uM incubated for 24 hrs by PI staining based flow cytometry analysis (reference value: 1.6 +/- 0.6 %); assay type: functional
[2] = tested on: HCT-116; assay: Induction of cell cycle arrest in human HCT-116 cells assessed as S phase at 0.75 uM measured at 0 hrs by PI staining based flow cytometry analysis (reference value: 12.4 +/- 6.2 %); assay type: functional
[3] = tested on: HCT-116; assay: Induction of cell cycle arrest in human HCT-116 cells assessed as G1 phase at 1.5 uM measured at 0 hrs by PI staining based flow cytometry analysis (reference value: 52 +/- 5.1 %); assay type: functional
[4] = tested on: HCT-116; assay: Induction of cell cycle arrest in human HCT-116 cells assessed as S phase at 0.375 uM incubated for 12 hrs by PI staining based flow cytometry analysis (reference value: 15.5 +/- 0.2 %); assay type: functional
[5] = tested on: HCT-116; assay: Induction of cell cycle arrest in human HCT-116 cells assessed as S phase at 1.5 uM incubated for 36 hrs by PI staining based flow cytometry analysis (reference value: 7.9 +/- 3.7 %); assay type: functional
[6] = tested on: HCT-116; assay: Induction of cell cycle arrest in human HCT-116 cells assessed as G1 phase at 1.5 uM incubated for 12 hrs by PI staining based flow cytometry analysis (reference value: 53.6 +/- 4.5 %); assay type: functional
[7] = tested on: HCT-116; assay: Induction of cell cycle arrest in human HCT-116 cells assessed as G1 phase at 1.5 uM incubated for 36 hrs by PI staining based flow cytometry analysis (reference value: 57.4 +/- 1.3 %); assay type: functional
[8] = Solubility in mixture of ethanol/PEG400/Cremophor EL/0.9% saline; assay type: physicochemical; details: buffer
[9] = tested on: NCI-H460; assay: Induction of cell cycle arrest in human NCI-H460 cells assessed as S phase at 0.75 uM incubated for 12 hrs by PI staining based flow cytometry analysis (reference value: 11.2 +/- 4.3 %); assay type: functional
[10] = tested on: NCI-H460; assay: Induction of apoptosis in human NCI-H460 cells assessed as late apoptotic cells at 3 uM incubated for 48 hrs by annexin V-FITC and PI staining based flow cytometry analysis (reference value: 7.3 %); assay type: functional
[11] = tested on: NCI-H460; assay: Induction of cell cycle arrest in human NCI-H460 cells assessed as S phase at 0.75 uM incubated for 36 hrs by PI staining based flow cytometry analysis (reference value: 7.6 +/- 3.9 %); assay type: functional
[12] = tested on: NCI-H460; assay: Induction of apoptosis in human NCI-H460 cells assessed as necrotic cells at 1.5 uM incubated for 48 hrs by annexin V-FITC and PI staining based flow cytometry analysis (reference value: 0.7 %); assay type: functional
[13] = tested on: HCT-116; assay: Induction of cell cycle arrest in human HCT-116 cells assessed as G2/M phase at 1.5 uM incubated for 24 hrs by PI staining based flow cytometry analysis (reference value: 9.3 +/- 0.8 %); assay type: functional
[14] = tested on: HCT-116; assay: Induction of cell cycle arrest in human HCT-116 cells assessed as S phase at 1.5 uM incubated for 12 hrs by PI staining based flow cytometry analysis (reference value: 15.5 +/- 0.2 %); assay type: functional
[15] = tested on: HCT-116; assay: Induction of cell cycle arrest in human HCT-116 cells assessed as G1 phase at 0.75 uM incubated for 36 hrs by PI staining based flow cytometry analysis (reference value: 57.4 +/- 1.3 %); assay type: functional
[16] = tested on: HCT-116; assay: Induction of cell cycle arrest in human HCT-116 cells assessed as G1 phase at 1.5 uM incubated for 24 hrs by PI staining based flow cytometry analysis (reference value: 55 +/- 9.8 %); assay type: functional
[17] = tested on: HCT-116; assay: Induction of cell cycle arrest in human HCT-116 cells assessed as S phase at 0.75 uM incubated for 24 hrs by PI staining based flow cytometry analysis (reference value: 21.2 +/- 5.4 %); assay type: functional
[18] = tested on: NCI-H460; assay: Induction of cell cycle arrest in human NCI-H460 cells assessed as S phase at 1.5 uM incubated for 36 hrs by PI staining based flow cytometry analysis (reference value: 7.6 +/- 3.9 %); assay type: functional
[19] = tested on: HCT-116; assay: Induction of cell cycle arrest in human HCT-116 cells assessed as G1 phase at 0.75 uM measured at 0 hrs by PI staining based flow cytometry analysis (reference value: 52 +/- 5.1 %); assay type: functional
[20] = tested on: NCI-H460; assay: Induction of cell cycle arrest in human NCI-H460 cells assessed as G2/M phase at 3 uM measured at 0 hrs by PI staining based flow cytometry analysis (reference value: 25.2 +/- 4 %); assay type: functional
[21] = tested on: HCT-116; assay: Induction of cell cycle arrest in human HCT-116 cells assessed as G2/M phase at 0.75 uM incubated for 24 hrs by PI staining based flow cytometry analysis (reference value: 9.3 +/- 0.8 %); assay type: functional
[22] = tested on: NCI-H460; assay: Induction of cell cycle arrest in human NCI-H460 cells assessed as G1 phase at 1.5 uM incubated for 24 hrs by PI staining based flow cytometry analysis (reference value: 56.8 +/- 7.6 %); assay type: functional
[23] = tested on: NCI-H460; assay: Induction of cell cycle arrest in human NCI-H460 cells assessed as S phase at 1.5 uM incubated for 24 hrs by PI staining based flow cytometry analysis (reference value: 11.7 +/- 6.1 %); assay type: functional
[24] = tested on: HCT-116; assay: Induction of cell cycle arrest in human HCT-116 cells assessed as G1 phase at 0.375 uM measured at 0 hrs by PI staining based flow cytometry analysis (reference value: 52 +/- 5.1 %); assay type: functional
[25] = tested on: NCI-H460; assay: Induction of apoptosis in human NCI-H460 cells assessed as viable cells at 1.5 uM incubated for 48 hrs by annexin V-FITC and PI staining based flow cytometry analysis (reference value: 90.1 %); assay type: functional; details: read-out: Activity
[26] = tested on: HCT-116; assay: Induction of cell cycle arrest in human HCT-116 cells assessed as G0 phase at 0.75 uM incubated for 36 hrs by PI staining based flow cytometry analysis (reference value: 2.5 +/- 0.8 %); assay type: functional

Work on OCc1cn2c3ccccc3c3ccccc3c2c1CO yielded an Activity [1] of 5.2%, an Activity [2] of 12.6% and an Activity [3] of 53.6%. For the same compound, the Activity [4] was 16.9%, the Activity [5] was 6.1% and the Activity [6] was 48.8%. For the same compound, the Activity [7] was 52.3%, the solubility [8] was “Soluble” and the Activity [9] was 14.2%. The Activity [10] was 51.4%, the Activity [11] was 6.3% and the Activity [12] was 0.5%. It also gave an Activity [13] of 30.3%, an Activity [14] of 19.9% and an Activity [15] of 65.1%. It also gave an Activity [16] of 54.5%, an Activity [17] of 8.9% and an Activity [18] of 3.5%. For the same compound, the Activity [19] was 52%, the Activity [20] was 24.6% and the Activity [21] was 25.6%. The Activity [22] was 56.3%, the Activity [23] was 8.6% and the Activity [24] was 52.9%. For the same compound, the viability at 1.5 µM [25] was 82.2% and the Activity [26] was 6.9%.
